IC50 data for 23 compounds are collected here from ChEMBL document CHEMBL3864193 (Bioorg Med Chem, 2016).

Structures are written as SMILES.

Experiment [1] in a line: cells. Conditions: Homo sapiens, MCF7, 72 h.
Description: Cytotoxicity against human MCF7 cells after 72 hrs by MTT assay
Experiment [2] in a line: Cytotoxicity against human A549 cells after 72 hrs by MTT assay. The experiment is classed as functional, cell-based. Conditions: A549, 72 h.
Experiment [3] in a line: cells. Particulars: Homo sapiens, PC-3, 72 h.
Description: Cytotoxicity against human PC3 cells after 72 hrs by MTT assay
In experiment [4] the target is Vascular endothelial growth factor receptor 2 (Homo sapiens, UniProt P35968). Description: Inhibition of VEGFR2 (unknown origin) by mobility shift/LanthaScreen assay. (In general: TR-FRET usually uses a lanthanide donor and a delayed reading to cut background.)

As usually defined, the IC50 is the concentration needed to halve the response being measured.

Sequence of Vascular endothelial growth factor receptor 2 (P35968 whole entry): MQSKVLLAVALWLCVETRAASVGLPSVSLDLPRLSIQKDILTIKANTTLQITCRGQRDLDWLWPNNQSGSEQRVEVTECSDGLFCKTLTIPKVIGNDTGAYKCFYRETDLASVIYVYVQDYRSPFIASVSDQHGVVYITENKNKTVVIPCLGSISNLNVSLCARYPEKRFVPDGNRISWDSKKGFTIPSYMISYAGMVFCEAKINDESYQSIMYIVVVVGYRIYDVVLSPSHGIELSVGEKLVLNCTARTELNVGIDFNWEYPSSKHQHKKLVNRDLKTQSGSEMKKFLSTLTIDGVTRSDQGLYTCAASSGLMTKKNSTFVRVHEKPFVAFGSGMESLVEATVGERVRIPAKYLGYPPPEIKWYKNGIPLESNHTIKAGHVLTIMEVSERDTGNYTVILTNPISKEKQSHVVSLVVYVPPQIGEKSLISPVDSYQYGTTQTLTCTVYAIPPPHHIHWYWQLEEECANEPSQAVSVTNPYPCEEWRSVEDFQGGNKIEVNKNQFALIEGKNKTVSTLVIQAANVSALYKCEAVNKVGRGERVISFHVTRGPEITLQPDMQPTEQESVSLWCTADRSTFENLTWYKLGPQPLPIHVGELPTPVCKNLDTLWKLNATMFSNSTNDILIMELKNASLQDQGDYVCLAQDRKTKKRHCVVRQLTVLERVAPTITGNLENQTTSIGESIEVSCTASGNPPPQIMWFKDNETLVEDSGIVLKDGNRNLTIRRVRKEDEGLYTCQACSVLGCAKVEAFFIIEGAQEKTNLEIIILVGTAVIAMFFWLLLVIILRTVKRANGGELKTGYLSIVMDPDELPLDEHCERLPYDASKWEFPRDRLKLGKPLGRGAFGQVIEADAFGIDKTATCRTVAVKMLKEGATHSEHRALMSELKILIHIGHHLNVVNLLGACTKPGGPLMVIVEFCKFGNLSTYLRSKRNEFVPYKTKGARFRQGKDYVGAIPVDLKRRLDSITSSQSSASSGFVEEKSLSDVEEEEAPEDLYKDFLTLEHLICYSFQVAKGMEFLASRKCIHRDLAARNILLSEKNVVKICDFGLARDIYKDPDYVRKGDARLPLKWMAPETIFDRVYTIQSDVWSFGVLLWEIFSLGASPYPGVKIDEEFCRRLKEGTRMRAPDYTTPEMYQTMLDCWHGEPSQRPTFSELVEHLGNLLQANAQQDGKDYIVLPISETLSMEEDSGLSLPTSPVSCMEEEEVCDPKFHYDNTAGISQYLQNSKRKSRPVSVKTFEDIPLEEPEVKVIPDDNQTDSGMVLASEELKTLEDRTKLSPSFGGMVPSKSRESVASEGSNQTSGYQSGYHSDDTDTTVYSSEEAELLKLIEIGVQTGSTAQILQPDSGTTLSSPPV

With `CNC(=O)c1cc(Oc2ccc(NC(=O)c3cc(-c4ccc(Cl)cc4)ncn3)cc2F)ccn1`, the IC50 (in the experiment “cells [1]”; in experiment [2]; in the experiment “cells [3]”) was more than 100 µM throughout.

As for `CNC(=O)c1cc(Oc2ccc(NC(=O)c3nccc(-c4ccc(C)cc4)n3)cc2F)ccn1`, the concentration for half-maximal inhibition (IC50) in “cells [1]” was found to be 69.2 µM; in experiment [2] it was 33.2 µM; in “cells [3]”, 28.4 µM.

As to `CNC(=O)c1cc(Oc2ccc(NC(=O)c3nccc(-c4cccc(Cl)c4)n3)cc2)ccn1`, the figures for the IC50 (in the experiment “cells [1]”; in experiment [2]; in the experiment “cells [3]”) were more than 100 µM, more than 100 µM and 20.8 µM, respectively.

As for `CNC(=O)c1cc(Oc2ccc(NC(=O)c3cc(-c4ccc(F)cc4)ncn3)cc2)ccn1`, the IC50 (in “cells [1]”; in experiment [2]; in “cells [3]”) was more than 100 µM each time.

Regarding `CCc1ccc(-c2cc(C(=O)Nc3ccc(Oc4ccnc(C(=O)NC)c4)c(F)c3)ncn2)cc1`, the IC50 in experiment [4] turned out to be 1.2 µM; in “cells [1]”, 7.63 µM; in experiment [2], 3.39 µM; in “cells [3]” it was 15.6 µM.

For `CNC(=O)c1cc(Oc2ccc(NC(=O)c3cc(-c4ccc(Br)cc4)ncn3)cc2)ccn1`, the IC50 (in “cells [1]”; in experiment [2]; in the experiment “cells [3]”) was more than 100 µM each time.

For `CNC(=O)c1cc(Oc2ccc(NC(=O)c3cc(-c4ccc(C(F)(F)F)cc4)ncn3)cc2)ccn1`, the IC50 (in the experiment “cells [1]”; in experiment [2]; in the experiment “cells [3]”) was more than 100 µM throughout.

For `CNC(=O)c1cc(Oc2ccc(NC(=O)c3nccc(-c4ccc(C)cc4)n3)cc2)ccn1`, the IC50 in the experiment “cells [1]” was 44.2 µM; in experiment [2], 28.4 µM; in “cells [3]”, 13.1 µM.

On to `CNC(=O)c1cc(Oc2ccc(NC(=O)c3nccc(-c4ccc([N+](=O)[O-])cc4)n3)cc2)ccn1`, for which the IC50 (in the experiment “cells [1]”; in experiment [2]; in the experiment “cells [3]”) was more than 100 µM in each case.

For `CNC(=O)c1cc(Oc2ccc(NC(=O)c3cc(-c4ccc(OC)cc4)ncn3)cc2)ccn1`, the IC50 in “cells [1]” turned out to be 29.2 µM; in experiment [2], 13.5 µM; in the experiment “cells [3]” it was 38.8 µM.

Regarding `CNC(=O)c1cc(Oc2ccc(NC(=O)c3nccc(-c4ccccc4)n3)cc2)ccn1`, the values for the IC50 (in “cells [1]”; in experiment [2]; in “cells [3]”) were 39.1 µM, 26.2 µM and 7.31 µM, respectively.

With `CNC(=O)c1cc(Oc2ccc(NC(=O)c3cc(-c4ccc(OC)cc4)ncn3)cc2F)ccn1`, the IC50 in “cells [1]” came out at 46.2 µM; in experiment [2] it was 34.5 µM; in the experiment “cells [3]”, 56.2 µM.

Turning to `CNC(=O)c1cc(Oc2ccc(NC(=O)c3nccc(-c4ccc(OC)cc4)n3)cc2F)ccn1`, the IC50 in the experiment “cells [1]” is more than 100 µM; in experiment [2] it was 16.6 µM; in the experiment “cells [3]” it was 24.3 µM.

Turning to `CNC(=O)c1cc(Oc2ccc(NC(=O)c3cc(-c4ccccc4)ncn3)cc2F)ccn1`, the values for the IC50 (in the experiment “cells [1]”; in experiment [2]; in “cells [3]”) were 32.4 µM, 23.2 µM and 44.3 µM, respectively.

Turning to `CNC(=O)c1cc(Oc2ccc(NC(=O)c3cc(-c4ccccc4)ncn3)cc2)ccn1`, the IC50 was 18.2 µM in the experiment “cells [1]”, 27.1 µM in experiment [2] and 44.2 µM in “cells [3]”.

On to `CNC(=O)c1cc(Oc2ccc(NC(=O)c3nccc(-c4ccc(OC)cc4)n3)cc2)ccn1`, for which the IC50 was 35.2 µM in “cells [1]”, 11.1 µM in experiment [2] and 14.2 µM in “cells [3]”.

`CNC(=O)c1cc(Oc2ccc(NC(=O)c3cc(-c4ccc(C(F)(F)F)cc4)ncn3)cc2F)ccn1`: the IC50 (in the experiment “cells [1]”; in experiment [2]; in the experiment “cells [3]”) was more than 100 µM in each case.

On to `CNC(=O)c1cc(Oc2ccc(NC(=O)c3cc(-c4ccc(Cl)cc4)ncn3)cc2)ccn1`, for which the IC50 (in the experiment “cells [1]”; in experiment [2]; in “cells [3]”) was more than 100 µM throughout.

`CNC(=O)c1cc(Oc2ccc(NC(=O)c3cc(-c4ccc(C)cc4)ncn3)cc2)ccn1`: the IC50 in the experiment “cells [1]” was 34.6 µM; in experiment [2], more than 100 µM; in “cells [3]”, more than 100 µM.

Take `CNC(=O)c1cc(Oc2ccc(NC(=O)c3cc(-c4ccc(Br)cc4)ncn3)cc2F)ccn1`: the IC50 (in “cells [1]”; in experiment [2]; in “cells [3]”) was more than 100 µM in each case.

With `CNC(=O)c1cc(Oc2ccc(NC(=O)c3cc(-c4ccc(F)cc4)ncn3)cc2F)ccn1`, the IC50 (in “cells [1]”; in experiment [2]; in “cells [3]”) was more than 100 µM throughout.

For `CCc1ccc(-c2cc(C(=O)Nc3ccc(Oc4ccnc(C(=O)NC)c4)cc3)ncn2)cc1`, the IC50 in experiment [4] stood at 3.6 µM; in “cells [1]” it was 6.35 µM; in experiment [2], 13.3 µM; in the experiment “cells [3]”, 29.3 µM.

Consider `CNC(=O)c1cc(Oc2ccc(NC(=O)c3cc(-c4ccc(C)cc4)ncn3)cc2F)ccn1`, for which the IC50 amounted to 19.2 µM in the experiment “cells [1]”, 13.2 µM in experiment [2] and 40.2 µM in the experiment “cells [3]”.
